Laboratory results: the NIST ThermoML archive (doi:10.1016/j.jct.2006.08.007)
Numbers after ± are expanded uncertainties. Each block holds one compound with its values, some of them ahead of it.

Assay: xn = mol fraction of the nth substance listed
Details: 279.15 K, 101 kPa, Liquid

mass density (x1 = 0.018): 1008.9 ± 3.2 kg/m3
speed of sound (x1 = 0.018): 1490 ± 12 m/s
mass density (x1 = 0.048): 1021 ± 3.3 kg/m3
speed of sound (x1 = 0.048): 1544.4 ± 13 m/s
mass density (x1 = 0.077): 1031.1 ± 3.4 kg/m3
speed of sound (x1 = 0.077): 1580 ± 13 m/s
mass density (x1 = 0.096): 1035.1 ± 3.5 kg/m3
speed of sound (x1 = 0.096): 1590.4 ± 13 m/s
mass density (x1 = 0.24): 1051.2 ± 4.1 kg/m3
speed of sound (x1 = 0.24): 1587.6 ± 13 m/s
mass density (x1 = 0.387): 1052.8 ± 4.9 kg/m3
speed of sound (x1 = 0.387): 1531.6 ± 13 m/s
mass density (x1 = 0.595): 1051.7 ± 6.3 kg/m3
speed of sound (x1 = 0.595): 1479.4 ± 13 m/s
SMILES: C1COCCO1 [1,4-dioxane] + O

mass density (x1 = 0.053): 986.6 ± 3.2 kg/m3
speed of sound (x1 = 0.053): 1540 ± 13 m/s
mass density (x1 = 0.091): 974.3 ± 3.2 kg/m3
speed of sound (x1 = 0.091): 1549.6 ± 13 m/s
mass density (x1 = 0.146): 955.5 ± 3.3 kg/m3
speed of sound (x1 = 0.146): 1511.8 ± 13 m/s
mass density (x1 = 0.187): 941.9 ± 3.3 kg/m3
speed of sound (x1 = 0.187): 1476.2 ± 12 m/s
mass density (x1 = 0.296): 909.5 ± 3.6 kg/m3
speed of sound (x1 = 0.296): 1451 ± 12 m/s
mass density (x1 = 0.376): 888.4 ± 3.8 kg/m3
speed of sound (x1 = 0.376): 1425 ± 12 m/s
mass density (x1 = 0.518): 859 ± 4.2 kg/m3
speed of sound (x1 = 0.518): 1387.2 ± 12 m/s
mass density (x1 = 0.692): 831.5 ± 4.9 kg/m3
speed of sound (x1 = 0.692): 1352 ± 12 m/s
mass density (x1 = 0.889): 807.2 ± 5.9 kg/m3
speed of sound (x1 = 0.889): 1321 ± 12 m/s
SMILES: CC#N [acetonitrile] + O

mass density (x1 = 0.023): 1000.9 ± 3.2 kg/m3
speed of sound (x1 = 0.023): 1511.6 ± 13 m/s
mass density (x1 = 0.0485): 1002.9 ± 3.2 kg/m3
speed of sound (x1 = 0.0485): 1578.6 ± 13 m/s
mass density (x1 = 0.0714): 1005.2 ± 3.3 kg/m3
speed of sound (x1 = 0.0714): 1625 ± 13 m/s
mass density (x1 = 0.0972): 1007.3 ± 3.4 kg/m3
speed of sound (x1 = 0.0972): 1664.6 ± 14 m/s
mass density (x1 = 0.2457): 1009.7 ± 3.9 kg/m3
speed of sound (x1 = 0.2457): 1748 ± 14 m/s
mass density (x1 = 0.3865): 1002.2 ± 4.5 kg/m3
speed of sound (x1 = 0.3865): 1714.6 ± 14 m/s
mass density (x1 = 0.5924): 986.6 ± 5.7 kg/m3
speed of sound (x1 = 0.5924): 1646 ± 14 m/s
mass density (x1 = 0.844): 970 ± 7.6 kg/m3
speed of sound (x1 = 0.844): 1564 ± 14 m/s
SMILES: CN(C)C=O [dimethylformamide] + O

mass density (x1 = 0.046): 996.6 ± 5.9 kg/m3
speed of sound (x1 = 0.046): 1571.5 ± 13 m/s
mass density (x1 = 0.086): 994.4 ± 5.9 kg/m3
speed of sound (x1 = 0.086): 1610.7 ± 13 m/s
mass density (x1 = 0.19): 979 ± 6.2 kg/m3
speed of sound (x1 = 0.19): 1554 ± 13 m/s
mass density (x1 = 0.33): 970.5 ± 6.7 kg/m3
speed of sound (x1 = 0.33): 1474.2 ± 12 m/s
mass density (x1 = 0.54): 934 ± 7.4 kg/m3
speed of sound (x1 = 0.54): 1420.7 ± 12 m/s
mass density (x1 = 0.74): 919.2 ± 8.6 kg/m3
speed of sound (x1 = 0.74): 1396.7 ± 12 m/s
SMILES: C1CCOC1 [tetrahydrofuran] + O

mass density (x2 = 0): 999.9 ± 5.8 kg/m3
speed of sound (x2 = 0): 1433 ± 12 m/s
SMILES: O [water] + C1CCOC1

mass density (x2 = 0): 999.9 ± 3.1 kg/m3
speed of sound (x2 = 0): 1430.4 ± 12 m/s
SMILES: O [water] + C1COCCO1

mass density (x2 = 0): 999.9 ± 3.1 kg/m3
speed of sound (x2 = 0): 1430.4 ± 12 m/s
SMILES: O [water] + CC#N

mass density (x2 = 0): 999.9 ± 3.1 kg/m3
speed of sound (x2 = 0): 1430.4 ± 12 m/s
SMILES: O [water] + CN(C)C=O
